Data: patent US12226490B2, “Anti-ROR1 antibody conjugates, compositions comprising anti ROR1 antibody conjugates, and methods of making and using anti-ROR1 antibody conjugates preliminary class” (Sutro Biopharma, Inc., priority 2022, dated 2025)

B1: Conjugate 4 (conjugate)
heavy: MEVQLVESGGGLVQPGGSLRLSCAASGFNISDYDIHWVRQAPGKGLEWVGGIDPADGSTDYADSVKGRFTISADTSKNTAYLQMNSLRAEDTAVYYCARDYGVYDYWGQGTLVTVSSASTKGPSVFPLAPSSKSTSGGTAALGCLVKDYFPEPVTVSWNSGALTSGVHTFPAVLQSSGLSLSSVVTVPSSSLGTQTYICNVNHKPSNTKVDKKVEPKSCDKTHTCPPCPAPELLGGPSVFLFPPKPKDTLMISRTPEVTCVVVDVSHEDPEVKFNWYVDGVEVHNAKTKPREEQYNSTYRVVSVLTVLHQDWLNGKEYKCKVSNKALPAPIEKTISKAKGQPREPQVYTLPPSREEMTKNQVSLTCLVKGFYPSDIAVEWESNGQPENNYKTTPPVLDSDGSFLYSKLTVDKSRWQQGNVFSCSVMHEALHNHYTQKSLSLSPGK
light: MDIQMTQSPSSLSASVGDRVTITCRASQDVNTAVAWYQQKPGAPKLLIYSASFLYSGVPSRFSGSRSGTDFTLTISSLQPEDFATYYCQQHYTTPPTFGQGTKVEIKRTVAAPSVFIFPPSDEQLKSGTASVVCLLNNFYPREAKVQWKVDNALQSGNSQSVTEQDSKDSTYSLSSTLTLSKADYEKHKVYACEVTHQGLSSPVTKSFNRGEC

Experiments:
[1] = tested on: ROR1 positive Ntera-2 cell; test: In vitro cell killing of ROR1 ADCs, ROR1 positive cells (Cell Titer-Glo, 120 hours); type: cell-based, human; settings: Table 13
Text: (§1) Ntera-2, MDA-MB-231, MCF7, HCT116 and Mino cells were obtained from ATCC. HCT116-hRor1-D02 clone was generated by transfecting HCT116 cells with a plasmid containing human Ror1 cDNA sequence and selected for highest stable expression of hRor1 on the cell surface. MDA-MB-231, MCF7, HCT116 and HCT116-Ror1 cell were maintained in Ham's F-12 high glucose DMEM (50-50) (Cellgro-Mediatech; Manassas, VA) supplemented with 10% heat-inactivated fetal bovine serum (Hyclone; Thermo Scientific; Waltham, MA), 1% Penicillin/Streptomycin (Cellgro-Mediatech; Manassas, VA) and 2 mmol/L-glutamax (Life Technology; Carlsbad, CA). Mino cells were maintained in RPMI-1640 medium (Cellgro-Mediatech; Manassas, VA) supplemented with 20% heat-inactivated fetal bovine serum (Hyclone; Thermo Scientific; Waltham, MA), 1% Penicillin/Streptomycin (Cellgro-Mediatech; Manassas, VA) and 2 mmol/L-glutamax (Life Technology; Carlsbad, CA).
(§2) Anti-ROR1 antibody was conjugated to different linker-warheads described herein at different DARs and the cell killing activity of the ADCs were evaluated on ROR1 positive Ntera-2 cell and ROR1 negative MCF7 cells.
(§3) Ntera-2 or MCF7 cell at 625 cells/25 μL were seeded in a 384-well flat bottom white polystyrene plate one day before the assay start. ADCs were formulated at 2× starting concentration. Filter sterilized samples were serial diluted (1:3) under sterile conditions and added onto cells in triplicates. Plates were cultured at 37° C. in a CO2 incubator for 120 hours. […] Relative luminescence was measured on an ENVISION® plate reader (Perkin-Elmer; Waltham, MA). Relative luminescence readings were converted to % viability using untreated cells as controls. […]
(§4) To evaluate if the cell killing activity of anti-ROR1 ADCs is dependent on antibody binding to ROR1 expressed on cell surface, the same linker-warheads (LP3, LP4) were conjugated to an anti-GFP antibody and the cell killing of the anti-ROR1 and anti-GFP ADCs were evaluated in cell killing assays on ROR1 positive Ntera-2 cell and ROR1 negative MCF7 cells.

ROR1 negative MCF7 cells = test: In vitro cell killing of ROR1 ADCs, ROR1 negative cells (Cell Titer-Glo, 120 hours); type: cell-based, human; settings: Table 13
Text: as §1, §2, §3, §4

MDA-MB-231 tumor = test: MDA-MB-231 TNBC xenograft model; type: in vivo, SCID/beige mice
Method: (§5) The activities of ROR1-targeted ADCs described herein were examined in a MDA-MB-231 TNBC xenograft model. Briefly, SCID/beige mice were implanted subcutaneously with 5×10^6 MDA-MB-231 tumor cells in the mammary fat pad and randomized and enrolled into the study 7 days post implant, with tumor sizes around 130 mm^3. Tumor-bearing mice were administered four weekly doses (qw×4) of the test articles at doses ranging from 2 mg/kg to 5 mg/kg. All treatments were well tolerated with normal body weight gain throughout the course of the study.
as §5, with “SCID/beige” for “The activities of ROR1-targeted ADCs described herein were examined in a MDA-MB-231 TNBC xenograft model. Briefly, SCID/beige”
as §5, with “SCID/beige” for “The activities of ROR1-targeted ADCs described herein were examined in a MDA-MB-231 TNBC xenograft model. Briefly, SCID/beige”, “three” for “four”, “(qw×3)” for “(qw×4)”, “study. […]” for “study.”

| Molecule | NTERA-2 Span [1] [%] | MCF-7 Span (ROR1 negative MCF7 cells) [%] | TGI (MDA-MB-231 tumor; Example 20, day 42, 2 mg/kg qw×4) [%] | TGI (MDA-MB-231 tumor; Example 21, day 43, 5 mg/kg qw×4) [%] |
| --- | --- | --- | --- | --- |
| CC[C@@]1(O)C(=O)OCc2c1cc1n(c2=O)Cc2c-1nc1cc(F)c(C)c3c1c2[C@@H](NC(=O)CO)CC3 [Dxd] | 99 | 63 | – | – |
| COc1cccc2c1C(=O)c1c(O)c3c(c(O)c1C2=O)C[C@@](O)(C(=O)NCCN)C[C@@H]3O[C@H]1C[C@H]2[C@H](O[C@@H]3[C@@H](OC)OCCN32)[C@H](C)O1 [PNU-EDA] | 99 | 85 | – | – |
| B1 | – | – | 36 | 23 |
